{"source": "patent US20050203191A1", "about": "“1-Aminocyclohexane derivatives for the treatment of agitation and other behavioral disorders, especially those associated with alzheimer's disease” (priority 2004, published 2005)", "test_system": "moderate to severe Alzheimer's patients treated with ongoing donepezil therapy", "assay": "MD-02 (Therapy Example 2): 24-week double-blind placebo-controlled trial of memantine added to ongoing donepezil", "type": "in vivo, human", "conditions": "MD-02, on donepezil, week 24, ITT LOCF", "procedure": "A 24 week, double-blind, placebo-controlled trial was conducted in moderate to severe Alzheimer's patients (N=404) treated with ongoing donepezil therapy and randomized to memantine or placebo. Behavioral symptoms were assessed using the NPI administered at baseline, Week 12 and the final visit (Week 24). The trial already had established benefits of memantine on functional, cognitive, and global measures. The statistical analysis was based on the ITT population using the last observation carried forward (LOCF) and observed case (OC) approaches.\nThis study enrolled four hundred and four patients diagnosed with probable AD according to the National Institute of Neurological and Communicative Disorders and Stroke—Alzheimer's Disease and Related Disorders Association (NINCDS-ADRDA) criteria with moderate to severe stages of illness. Inclusion criteria were as follows: Mini-Mental State Examination (MMSE) score of 5-14 at screening and at baseline; minimum age of 50 years; a recent MRI or CT scan consistent with a diagnosis of probable AD; on AChEI therapy, which was defined by the protocol to be donepezil, for more than 6 months prior to entrance into the trial and at a stable dose (5-10 mg/day) for at least 3 months prior to entrance in the trial; a knowledgeable and reliable caregiver to accompany the patient to research visits and oversee the administration of the investigational agent during the trial; residence in the community; ambulatory or ambulatory-aided (i.e. walker or cane) ability; and stable medical condition.\nPatients were excluded for clinically significant reasons; B12 or folate deficiency; active pulmonary, gastrointestinal, renal, hepatic, endocrine, or cardiovascular disease; other psychiatric or central nervous system disorders; CT or MRI evidence of clinically significant central nervous system disorders other than probable AD; dementia complicated by other organic disease; or a modified Hachinski Ischemia Score30 greater than 4 at screening.\nThis was a prospective, randomized, placebo-controlled, parallel-arm, fixed-dose trial in which participants were assigned to double-blind treatment for 24 weeks with a 1-2 week single-blind, placebo lead-in phase prior to randomization. The initial dose of memantine was 5 mg/day with escalation to 20 mg/day over the first 3 weeks of double-blind treatment. All patients were to maintain their protocol-defined AChEI therapy at entry dose for the duration of the study. From week 3 to the end of week 8 of double-blind treatment, transient dosage adjustments for memantine treatment were permitted for patients experiencing dose-limiting adverse events. All memantine-treated patients were required to receive the target dose of 20 mg/day by the end of week 8, and patients not tolerating the target dose at that time were discontinued.\nPatients were randomly allocated in permuted blocks of four to one of the two treatment. Blinded study medication was supplied to each study site for dispensation in blister packs at each visit. No unblinding occurred during the trial. Compliance monitoring was conducted via pill counts, and over 95% of both treatment groups had >75% compliance (95% for the placebo/AChEI treatment group and 96.5% for the memantine/AChEI treatment group).\nCognitive, functional, global, and behavioral outcome measures were obtained at screening, baseline, and at the end of weeks 4, 8, 12, 18, and 24. […] The efficacy parameters were the change from baseline on the SIB, a modified ADCS-ADL Inventory score at week 24, and the NPI. The 12-item version of the NPI was used here, with a total score ranging from 0-144. Higher scores reflect greater symptomatology. The NPI was assessed at baseline, at the end of week 12, and at the final visit.\nThree populations were considered in the statistical analyses. […]", "key": {"[1]": {"conditions": "NPI total score ≧=75% (top quartile)"}, "[2]": {"conditions": "antipsychotics usage “YES” (N = n)"}, "[3]": {"conditions": "antipsychotics usage “YES” (N = y)"}, "[4]": {"conditions": "baseline NPI agitation score <4"}, "[5]": {"conditions": "baseline NPI agitation score ≧=4"}}}
{"smiles": "CC12CC3CC(C)(C1)CC(N)(C3)C2", "note": "[memantine, 1-amino-3,5-dimethyl adamantane]", "values": [{"measurement": "ADCS-ADL (change) LS Mean Diff., MEM v. PLA", "setting": "NPI total score <75%", "result": 1.17}, {"measurement": "ADCS-ADL (change) mean", "setting": "NPI total score <75%", "result": "−1.6"}, {"measurement": "CIBIC-PLUS Raw Mean Diff., MEM v. PLA", "setting": "NPI total score <75%", "result": "−0.2"}, {"measurement": "CIBIC-PLUS mean", "setting": "NPI total score <75%", "result": 4.4}, {"measurement": "SIB (change) LS Mean Diff., MEM v. PLA", "setting": "NPI total score <75%", "result": 2.5}, {"measurement": "SIB (change) mean", "setting": "NPI total score <75%", "result": 0.9}, {"measurement": "ADCS-ADL (change) LS Mean Diff., MEM v. PLA", "setting": "[1]", "result": 1.73}, {"measurement": "ADCS-ADL (change) mean", "setting": "[1]", "result": "−2.6"}, {"measurement": "CIBIC-PLUS Raw Mean Diff., MEM v. PLA", "setting": "[1]", "result": "−0.3"}, {"measurement": "CIBIC-PLUS mean", "setting": "[1]", "result": 4.4}, {"measurement": "SIB (change) LS Mean Diff., MEM v. PLA", "setting": "[1]", "result": 6.1}, {"measurement": "SIB (change) mean", "setting": "[1]", "result": "−1.4"}, {"measurement": "ADCS-ADL (change) LS Mean Diff., MEM v. PLA", "setting": "NPI total score ≧=75% (top quartile), listed as MEM", "result": "−1.73"}, {"measurement": "ADCS-ADL (change) LS Mean Diff., MEM v. PLA", "setting": "[2]", "result": 0.9}, {"measurement": "ADCS-ADL (change) mean", "setting": "[2]", "result": "−1.8"}, {"measurement": "CIBIC-PLUS Raw Mean Diff., MEM v. PLA", "setting": "[2]", "result": "−0.08"}, {"measurement": "CIBIC-PLUS mean", "setting": "[2]", "result": 4.45}, {"measurement": "SIB (change) LS Mean Diff., MEM v. PLA", "setting": "[2]", "result": 1.7}, {"measurement": "SIB (change) mean", "setting": "[2]", "result": 0.3}, {"measurement": "ADCS-ADL (change) LS Mean Diff., MEM v. PLA", "setting": "[3]", "result": 3.6}, {"measurement": "ADCS-ADL (change) mean", "setting": "[3]", "result": "−2.1"}, {"measurement": "CIBIC-PLUS Raw Mean Diff., MEM v. PLA", "setting": "[3]", "result": "−1.18"}, {"measurement": "CIBIC-PLUS mean", "setting": "[3]", "result": 4.17}, {"measurement": "SIB (change) LS Mean Diff., MEM v. PLA", "setting": "[3]", "result": 12.4}, {"measurement": "SIB (change) mean", "setting": "[3]", "result": 5.2}, {"measurement": "ADCS-ADL (change) LS Mean Diff., MEM v. PLA", "setting": "[4]", "result": 1.2}, {"measurement": "ADCS-ADL (change) mean", "setting": "[4]", "result": "−1.8"}, {"measurement": "CIBIC-PLUS Raw Mean Diff., MEM v. PLA", "setting": "[4]", "result": "−0.3"}, {"measurement": "CIBIC-PLUS mean", "setting": "[4]", "result": 4.4}, {"measurement": "SIB (change) LS Mean Diff., MEM v. PLA", "setting": "[4]", "result": 3.6}, {"measurement": "SIB (change) mean", "setting": "[4]", "result": 1.0}, {"measurement": "SIB (change) LS Mean Diff., MEM v. PLA", "setting": "baseline NPI agitation score <4, listed as MEM", "result": 3.4}, {"measurement": "ADCS-ADL (change) LS Mean Diff., MEM v. PLA", "setting": "[5]", "result": 2.1}, {"measurement": "ADCS-ADL (change) mean", "setting": "[5]", "result": "−2.0"}, {"measurement": "CIBIC-PLUS Raw Mean Diff., MEM v. PLA", "setting": "[5]", "result": "−0.1"}, {"measurement": "SIB (change) LS Mean Diff., MEM v. PLA", "setting": "[5]", "result": 3.8}, {"measurement": "SIB (change) mean", "setting": "[5]", "result": 1.1}, {"measurement": "ADCS-ADL (change) LS mean", "setting": "overall", "result": "−2.00"}, {"measurement": "CIBIC-PLUS LS mean", "setting": "overall", "result": 4.41}, {"measurement": "SIB (change) LS mean", "setting": "overall", "result": 0.90}, {"measurement": "ADCS-ADL (change) LS Mean Diff., MEM v. PLA", "setting": "overall, listed as MEM", "result": "−1.40"}, {"measurement": "CIBIC-PLUS Raw Mean Diff., MEM v. PLA", "setting": "overall, listed as MEM", "result": "−0.25"}, {"measurement": "SIB (change) LS Mean Diff., MEM v. PLA", "setting": "overall, listed as MEM", "result": "−3.40"}]}
